The values that follow come from patent US3974165A, “Hypotensive agents” (Bristol-Myers Company, priority 1974, dated 1976).

Assay [1] has as its system conscious rats. Put plainly: Effect of compounds on mean aortic pressure and heart rate in conscious rats (oral). In kind it is in vivo, genetically hypertensive rats. The following applies: for Heart Rate / mean aortic pressure / Heart Rate % Change / Aortic Pressure % Change: 50 mg/kg po; for Aortic Pressure % Change: - denotes a decrease in b.p. The method, then:
The blood pressure of unanesthetized rats and dogs was measured directly by means of a transducer attached to an intra-arterial cannula and in anesthetized dogs by a mercury manometer attached to a carotid cannula.
The compounds of the instant invention were tested as the hydrochloride salts by the above method in genetically hypertensive rats in doses of 50 mg./kg. orally.
Compounds were studied by oral administration in conscious rats for their effects on aortic pressure and cardiac rate.

For assay [2] the following is noted: as compared to compound 1; Jen et al, J. Med. Chem. 16, 633 (1973); cited from earlier work.
The test system of assay [3] is adenosine diphosphate (ADP) induced platelet aggregation. As to the kind of experiment: In vitro inhibition of ADP induced platelet aggregation (aggregometer method of Born). In kind it is cell-based. The following applies: Oryctolagus cuniculus; rabbit platelet rich plasma, ADP 0.5 mcg./ml. How it is done:
(§1) The aggregometer method of Born (1), as modified by Mustard et al (2) was used to assess the in vitro activity of the various compounds as to inhibition of adenosine diphosphate (ADP) and collagen induced platelet aggregation. Platelet rich plasma was separated by centrifugation from citrated (3.8 per cent) rabbit blood. ADP in final concentration of 0.5 mcg./ml. or 0.05 ml. of a collagen suspension prepared according to the method described by Evans et al. (3) was used to induce aggregation. The various compounds tested were dissolved in dimethylsulfoxide (DMSO) so that 5 mcl. added to the platelet rich plasma would yield the desired test concentration. Vehicle control trials were done and compared with aggregation induced in platelet rich plasma containing various concentrations of the test compounds. Dose response curves were obtained and Effective Concentration (EC50) values calculated.
(§2) 1. Born, G.V.R J. Physiol., London, 162, 67P (1962).
(§3) 2. mustard, J. F., Hegardt, B. Rowsell, H. C. and MacMillan, R. L., J. Lab. Clin. Med. 64, 548 (1964).
(§4) 3. Evans, G. Marian, M. C., Packham, M. A., Nishizawa, E. E., Mustard, J. F. and Murphy, E. A., J. Exp. Med., 128, 877 (1968).

In assay [4] the test system is collagen induced platelet aggregation. Put plainly: In vitro inhibition of collagen induced platelet aggregation (aggregometer method of Born). In kind it is cell-based. The conditions noted are these: Oryctolagus cuniculus; rabbit platelet rich plasma, 0.05 ml. collagen suspension. How it is done: as §1, §2, §3, §4
[5] abbreviates: oral administration, conscious rats.

Each structure is given as a SMILES string. Converted amounts (≈) assume the structure as drawn.

As to `O=C1CC2Cc3ccccc3N=C2N1` (centres unmarked) [BL-4369], the “Heart Rate” value was determined as 350±25 Beats/Min in assay [1] (N=3, 0 min (baseline)); 420±19 Beats/Min in assay [1] (N=3, 30 min); 414±26 Beats/Min in assay [1] (N=3, 90 min); 370±31 Beats/Min in assay [1] (N=3, 150 min); 382±25 Beats/Min in assay [1] (N=3, 300 min). In addition, the mean aortic pressure was determined as 114±2 mmHg in assay [1] (N=3, 0 min (baseline)); 91±6 mmHg in assay [1] (N=3, 30 min); 110±3 mmHg in assay [1] (N=3, 90 min); 101±3 mmHg in assay [1] (N=3, 150 min); 109±8 mmHg in assay [1] (N=3, 300 min). Further, the “Heart Rate % Change” value came to 21±9% in assay [1] (N=3, 30 min); 19±9% in assay [1] (N=3, 90 min); 6±8% in assay [1] (N=3, 150 min); 10±7% in assay [1] (N=3, 300 min). Also, the “Aortic Pressure % Change” value is -20±6% in assay [1] (N=3, 30 min); -3±4% in assay [1] (N=3, 90 min); -11±2% in assay [1] (N=3, 150 min).

In the case of `Cc1cccc2c1CC1CC(=O)NC1=N2` (centres unmarked) [BL-4412], the “Heart Rate” value in assay [1] (N=3, 0 min (baseline)) is 352±21 Beats/Min; in assay [1] (N=3, 30 min), 464±24 Beats/Min; in assay [1] (N=3, 90 min), 432±12 Beats/Min; in assay [1] (N=3, 150 min), 422±12 Beats/Min; in assay [1] (N=3, 300 min), 422±19 Beats/Min. The mean aortic pressure was 126±2 mmHg in assay [1] (N=3, 0 min (baseline)); 86±1 mmHg in assay [1] (N=3, 30 min); 86±2 mmHg in assay [1] (N=3, 90 min); 89±4 mmHg in assay [1] (N=3, 150 min). Moreover, the “Heart Rate % Change” value in assay [1] (N=3, 30 min) is recorded as 34±15%; in assay [1] (N=3, 90 min) it was 24±10%; in assay [1] (N=3, 150 min), 21±11%; in assay [1] (N=3, 300 min), 1±12%. Moreover, the “Aortic Pressure % Change” value was -32% in assay [1] (N=3, 30 min); -31.2% in assay [1] (N=3, 90 min); -29% in assay [1] (N=3, 150 min); -25% in assay [1] (N=3, 300 min). For the same molecule, the “effect on aortic pressure (in words)” value in assay [1] (setting [5]) is given as “appreciable fall in aortic pressure”. For the same molecule, the “effect on heart rate (in words)” value in assay [1] (setting [5]) was “not out of proportion to the fall in aortic pressure”.

In the case of `c1ccc2c(c1)CC1CCNC1=N2` (centres unmarked) [compound 2], the “antihypertensive activity (in words)” value in assay [2] was “low degree of antihypertensive activity”.

On to `O=C1CC2Cc3ccccc3N=C2N1` (centres unmarked) [drawing 3], for which the EC50 (usually the concentration at which the effect is half-maximal) amounted to 22 µg/mL (≈ 118 µM) in assay [3] and 27 µg/mL (≈ 145 µM) in assay [4].

Take `Cc1cccc2c1CC1CC(=O)NC1=N2` (centres unmarked) [drawing 4]: the EC50 in assay [3] was 1.5 µg/mL (≈ 7.49 µM); in assay [4] it was 0.3 µg/mL (≈ 1.5 µM).
